Results taken from patent US20150030566A1, “ANTIMICROBIAL PEPTIDE COMPOSITIONS FOR PLANTS” (Stellenbosch University, priority 2012, published 2015).
Like-named read-outs stand apart in the source and are kept apart here. Non-standard residues stand in square brackets, D forms with d. Residues, ends and D or L forms follow the SMILES beside them. No end group written: not given here. Orn = NCCC[C@H](N)C(=O)O

Tests used:
Fusarium solani = assay: Microdilution broth assay; type: cell-based; design: MIC against F. solani in PDB (n): unit not given beside the values; details: for MIC against F. solani in PDB (n): potato dextrose broth (low salt PDB)
Protocol: (§1) Microdilution broth and agar assays were used to assess the antifungal activity of the cyclic decapeptides in liquid media and on solid (gel) media, respectively.
(§2) The antibacterial activity of the tyrocidines and gramicidin S against all the bacteria tested was determined by the methods described by Du Toit E A and Rautenbach M (2000) J. Microbiol. Methods, 42, 159-165. The antifungal activity of the tyrocidines against all the […] tested was determined by the methods described by Troskie A M, Vlok N M and Rautenbach M (2012) J. Microbiol. Methods, 91, 551-558.

Botrytis cinerea = assay: Microdilution broth assay; type: cell-based; design: MIC + SEM / MIC against B. cinerea in PDB (n): unit not given beside the values
Protocol: as §1, §2

[1] = tested on: Cylindrocarpon and Campylocarpon spp; details: 13 fungicides evaluated; Halleen et al. 2007; cited from earlier work
black foot disease = details: field conditions; Halleen et al. 2007; cited from earlier work
[2] = potato dextrose broth (low salt PDB)

Row | Compound | MIC against F. solani in PDB (n) (Fusarium solani) | MIC against B. cinerea in PDB (n) (Botrytis cinerea; [2]) | other results
1 | CC(C)C[C@@H]1NC(=O)[C@H](CCCN)NC(=O)[C@H](C(C)C)NC(=O)[C@H](Cc2ccc(O)cc2)NC(=O)[C@H](CCC(N)=O)NC(=O)[C@H](CC(N)=O)NC(=O)[C@@H](Cc2ccccc2)NC(=O)[C@H](Cc2ccccc2)NC(=O)C2CCCN2C(=O)[C@@H](Cc2ccccc2)NC1=O (some centres unmarked) [TrcA, Cyclo-(VOLfPFfNQY)] (HELM PEPTIDE1{F.[dF].N.Q.Y.V.[Orn].L.[dF].[O=C(C1CCCN1[*:1])[*:2]]}$PEPTIDE1,PEPTIDE1,1:R1-10:R2$$$V2.0) | 4.0 ± 0.4 (3) | – | MIC against B. cinerea in PDB (n) (Botrytis cinerea): 5.2 ± 0.6 (6)
2 | CCCCNC(=O)n1c(NC(=O)OC)nc2ccccc21 [benomyl] | – | – | in vitro mycelial inhibition [1]: able to effectively reduce mycelial growth in all fungal strains tested; protection of propagation material against black foot disease (black foot disease): failed to protect propagation against black foot disease under field conditions
3 | C=CCOC(Cn1ccnc1)c1ccc(Cl)cc1Cl (centres unmarked) [imazalil] | – | – | in vitro mycelial inhibition [1]: able to effectively reduce mycelial growth in all fungal strains tested; protection of propagation material against black foot disease (black foot disease): failed to protect propagation against black foot disease under field conditions
4 | CCCN(CCOc1c(Cl)cc(Cl)cc1Cl)C(=O)n1ccnc1.CCCN(CCOc1c(Cl)cc(Cl)cc1Cl)C(=O)n1ccnc1.CCCN(CCOc1c(Cl)cc(Cl)cc1Cl)C(=O)n1ccnc1.CCCN(CCOc1c(Cl)cc(Cl)cc1Cl)C(=O)n1ccnc1.[Cl][Mn][Cl] [prochloraz manganese chloride] | – | – | in vitro mycelial inhibition [1]: able to effectively reduce mycelial growth in all fungal strains tested; protection of propagation material against black foot disease (black foot disease): failed to protect propagation against black foot disease under field conditions
5 | Cyclo-(VKLfP(W,f)NQY) (VKLFPWFNQY; HELM PEPTIDE1{V.K.L.[dF].P.W.[dF].N.Q.Y}$PEPTIDE1,PEPTIDE1,1:R1-10:R2$$$V2.0; SMILES CC(C)C[C@@H]1NC(=O)[C@H](CCCCN)NC(=O)[C@H](C(C)C)NC(=O)[C@H](Cc2ccc(O)cc2)NC(=O)[C@H](CCC(N)=O)NC(=O)[C@H](CC(N)=O)NC(=O)[C@@H](Cc2ccccc2)NC(=O)[C@H](Cc2c[nH]c3ccccc23)NC(=O)[C@@H]2CCCN2C(=O)[C@@H](Cc2ccccc2)NC1=O) [TrcB1/B1′] | 5.9 ± 0.6 (3) | 3.6 ± 0.1 (6) | –
6 | Cyclo-(VKLfPFfNQY) (chain 1 VKL[dF]PF[dF]NQY; chain 2 VKL[dF]PF[dF]NQY; also: head-to-tail to a chain's N/C-terminus; listed as Bacillus aneurinolyticus) [TrcA1] | 7.9 ± 0.7 (3) | 4.1 ± 0.7 (6) | –
7 | Cyclo-(VKLfPWwNQY) (chain 1 VKL[dF]PW[dW]NQY; chain 2 VKL[dF]PW[dW]NQY; also: head-to-tail to a chain's N/C-terminus; listed as Bacillus aneurinolyticus) [TrcC1] | 32 ± 2.8 (3) | 8.9 ± 1.5 (3) | –
8 | Cyclo-(VOLfP(W,f)NQY) (VXLFPWFNQY; HELM PEPTIDE1{V.[Orn].L.[dF].P.W.[dF].N.Q.Y}$PEPTIDE1,PEPTIDE1,1:R1-10:R2$$$V2.0; SMILES CC(C)C[C@@H]1NC(=O)[C@H](CCCN)NC(=O)[C@H](C(C)C)NC(=O)[C@H](Cc2ccc(O)cc2)NC(=O)[C@H](CCC(N)=O)NC(=O)[C@H](CC(N)=O)NC(=O)[C@@H](Cc2ccccc2)NC(=O)[C@H](Cc2c[nH]c3ccccc23)NC(=O)[C@@H]2CCCN2C(=O)[C@@H](Cc2ccccc2)NC1=O) [TrcB/B′] | 11 ± 4.0 (3) | 5.1 ± 1.0 (6) | –
9 | Cyclo-(VOLfPFfNQF) (chain 1 V[Orn]L[dF]PF[dF]NQF; chain 2 V[Orn]L[dF]PF[dF]NQF; also: head-to-tail to a chain's N/C-terminus; listed as Bacillus aneurinolyticus) [PhcA] | 7.2 ± 1.0 (3) | 6.9 ± 1.4 (5) | loss of activity from PDB to YTSB (Fusarium solani; F. solani, PDB (low salt) vs YTSB (high salt)): ~5 fold; loss of activity from PDB to YTSB (Botrytis cinerea; B. cinerea, PDB (low salt) vs YTSB (high salt)): ~2 fold
10 | Cyclo-(VOLfPWwNQW) (chain 1 V[Orn]L[dF]PW[dW]NQW; chain 2 V[Orn]L[dF]PW[dW]NQW; also: head-to-tail to a chain's N/C-terminus; listed as Bacillus aneurinolyticus) [TpcC] | 4.6 ± 0.9 (3) | 3.6 ± 0.2 (6) | decrease in activity from YTSB to PDB (Fusarium solani; F. solani, YTSB (high salt) vs PDB (low salt)): approximately twofold; decrease in activity from PDB to YTSB (Botrytis cinerea; B. cinerea, YTSB (high salt) vs PDB (low salt)): approximately twofold
11 | Cyclo-(VOLfPWwNQY) (chain 1 V[Orn]L[dF]PW[dW]NQY; chain 2 V[Orn]L[dF]PW[dW]NQY; also: head-to-tail to a chain's N/C-terminus; listed as Bacillus aneurinolyticus) [TrcC] | 4.3 ± 0.4 (3) | 3.5 ± 0.2 (6) | –
